Data from PMC6572064, “Discovery of 2-(1-(3-(4-Chloroxyphenyl)-3-oxo- propyl)pyrrolidine-3-yl)-1H-benzo[d]imidazole-4-carboxamide: A Potent Poly(ADP-ribose) Polymerase (PARP) Inhibitor for Treatment of Cancer” (Molecules, 2019).
pIC50: −log10 of the molar value. Where two headings read alike, the source gives them in different places.

Columns and labels:
PARP-1 = biological target: T1, PARP-1 (Homo sapiens, UniProt P09874); test: PARP-1 inhibition assay (PARP-1 Chemiluminescent Assay Kit, BPS Bioscience); assay type: biochemical
T1 construct: purchased BPS Bioscience 80569
T1 sequence (P09874 whole entry): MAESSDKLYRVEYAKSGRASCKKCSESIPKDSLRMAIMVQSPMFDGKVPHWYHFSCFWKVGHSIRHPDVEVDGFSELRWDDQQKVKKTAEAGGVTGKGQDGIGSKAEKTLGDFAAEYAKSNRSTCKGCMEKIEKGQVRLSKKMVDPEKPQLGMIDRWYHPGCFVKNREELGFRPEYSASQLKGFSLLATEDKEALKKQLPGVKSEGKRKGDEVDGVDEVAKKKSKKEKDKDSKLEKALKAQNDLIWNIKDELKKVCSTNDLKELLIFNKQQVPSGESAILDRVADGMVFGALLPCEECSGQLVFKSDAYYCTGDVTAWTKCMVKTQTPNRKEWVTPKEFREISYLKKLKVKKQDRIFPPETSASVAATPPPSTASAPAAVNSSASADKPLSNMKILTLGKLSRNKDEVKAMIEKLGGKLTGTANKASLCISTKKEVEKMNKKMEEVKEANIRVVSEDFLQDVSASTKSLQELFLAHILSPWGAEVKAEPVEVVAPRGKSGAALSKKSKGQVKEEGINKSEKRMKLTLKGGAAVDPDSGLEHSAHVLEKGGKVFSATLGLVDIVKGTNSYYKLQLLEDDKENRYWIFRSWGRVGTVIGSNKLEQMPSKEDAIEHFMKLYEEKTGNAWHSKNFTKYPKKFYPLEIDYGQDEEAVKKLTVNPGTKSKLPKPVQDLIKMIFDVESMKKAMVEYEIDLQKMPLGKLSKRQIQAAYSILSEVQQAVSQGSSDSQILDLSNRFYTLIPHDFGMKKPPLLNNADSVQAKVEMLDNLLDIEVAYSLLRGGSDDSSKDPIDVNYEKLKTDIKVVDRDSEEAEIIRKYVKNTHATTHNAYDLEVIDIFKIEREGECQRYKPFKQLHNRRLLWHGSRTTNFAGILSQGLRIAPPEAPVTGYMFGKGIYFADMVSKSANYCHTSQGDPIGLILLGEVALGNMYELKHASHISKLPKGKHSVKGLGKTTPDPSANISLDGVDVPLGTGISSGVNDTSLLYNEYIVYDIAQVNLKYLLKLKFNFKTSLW
Protocol: (§1) The PARP-1 and PARP-2 inhibition assays were performed in outsourcing, by a CRO company, Shanghai Medicilon Inc. (Shanghai, China). […] Briefly, PARP-1 or PARP-2 biotinylated substrate was incubated with compounds or solvent control at varying concentrations and an assay buffer containing the PARP-1 or PARP-2 enzyme.

[1] = tested on: CAPAN-1 (a BRCA-2-mutated pancreatic cancer cell line); test: Cell proliferation assay, three-day, CellTiter-Glo, CAPAN-1; assay type: cell-based; conditions: for inhibition at […]: CAPAN-1, 0.14 uM
Procedure, shortened: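 Luminescent ATP read-out (CellTiter-Glo, 60 min at room temperature) quantified viability after a 72 h compound exposure at 37 °C, 5% CO2. Compounds, diluted from DMSO stocks into growth medium, were added to cells plated the previous day.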

[2] = tested on: MDA-MB-436 (a BRCA-1-mutated breast cancer cell line); test: Cell proliferation assay, three-day, CellTiter-Glo, MDA-MB-436; assay type: cell-based; conditions: for inhibition at 0.00508 µM / inhibition at 0.0152 µM / inhibition at 0.0457 µM / inhibition at 0.41 µM / inhibition at 1.23 µM / inhibition at 3.7 µM / inhibition at 11.11 µM / inhibition at 33.33 µM / inhibition at 100 µM / pIC50 / IC50: Homo sapiens; for LogIC50: curve fit on Log (uM) concentrations; for Top: curve fit parameter (Inh %), '= 100.0' is a constrained value
Protocol: A three-day assay was conducted. A cell suspension was prepared. Cell density was counted by an automated cell counter and then diluted to the required density, according to seeding density. 50 μL cells were seeded into 384-well plate in growth medium according to the plate map. The cells were incubated at 37 °C, 5% CO2 overnight.
200× compound solution in DMSO was prepared and diluted with growth medium to 26× final concentration by addition of 26 μL 200× compounds to 174 μL growth medium. Then 2 μL of diluted compound solution was added to cells and the cell was incubated at 37 °C, 5% CO2 for 72 h.
The assay plate was equilibrated to room temperature prior to measurement. 15 μL of CellTiter-Glo Reagent was added into each well and the contents were mixed for 2 min on an orbital shaker to induce cell lysis. The cells were incubated at room temperature for 60 min to stabilize luminescent signal. Luminescence was recorded on the Envision system.

PARP-2 = biological target: T2, PARP-2 (Homo sapiens, UniProt Q9UGN5); test: PARP-2 inhibition assay (PARP-2 Chemiluminescent Assay Kit, BPS Bioscience); assay type: biochemical
T2 construct: purchased BPS Bioscience 80552
T2 sequence (Q9UGN5 whole entry): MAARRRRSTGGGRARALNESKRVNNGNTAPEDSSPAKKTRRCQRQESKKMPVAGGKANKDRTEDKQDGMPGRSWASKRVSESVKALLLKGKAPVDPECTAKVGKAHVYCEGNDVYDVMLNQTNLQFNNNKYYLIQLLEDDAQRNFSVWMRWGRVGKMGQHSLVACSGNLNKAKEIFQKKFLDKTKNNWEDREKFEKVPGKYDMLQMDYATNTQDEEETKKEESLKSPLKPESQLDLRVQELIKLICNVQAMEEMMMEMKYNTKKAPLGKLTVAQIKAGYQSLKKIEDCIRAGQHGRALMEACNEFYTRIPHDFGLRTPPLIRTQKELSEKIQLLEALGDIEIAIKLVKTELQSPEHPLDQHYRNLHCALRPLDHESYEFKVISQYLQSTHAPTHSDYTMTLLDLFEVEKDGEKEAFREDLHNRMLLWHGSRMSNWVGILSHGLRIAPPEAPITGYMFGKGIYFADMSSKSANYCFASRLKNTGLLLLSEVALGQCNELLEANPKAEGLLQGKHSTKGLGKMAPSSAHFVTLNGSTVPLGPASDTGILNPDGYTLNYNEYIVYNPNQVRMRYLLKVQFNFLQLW
Protocol: as §1

[3] = Homo sapiens, CAPAN-1, read-out: Inh % 1
[4] = Homo sapiens, CAPAN-1, read-out: Inh % 2

**Q.** What does the source list for `NC(=O)c1cccc2[nH]c(C3CCN(CC(O)c4ccccc4)C3)nc12` (centres unmarked) [Compound 5cf, 2-(1-(2-Hydroxy-2-phenylethyl)pyrrolidin-3-yl)-1H-benzo[d]imidazole-4-carboxamide]?
**A.** inhibition at 0.01 µM (PARP-1; 10 nM compound, supplement sheet, read-out: 10 nM inhibition% PAPR-1): 5.03%; inhibition at 0.01 µM (PARP-1; 10 nM compound, read-out: PARP-1 Inhibition % (10 nM)): 5%; pIC50 ([1]; Homo sapiens, CAPAN-1, 72 h, CellTiter-Glo, read-out: CAPAN-1 IC50): < 4.00; inhibition at 0.00508 µM ([1]; Homo sapiens, CAPAN-1, 0.00508 uM, replicate 1, read-out: Inh % 1): -1.7%; inhibition at 0.00508 µM ([1]; Homo sapiens, CAPAN-1, 0.00508 uM, replicate 2, read-out: Inh % 2): -8.4%; inhibition at 0.0152 µM ([1]; Homo sapiens, CAPAN-1, 0.0152 uM, replicate 1, read-out: Inh % 1): 3.2%; inhibition at 0.0152 µM ([1]; Homo sapiens, CAPAN-1, 0.0152 uM, replicate 2, read-out: Inh % 2): -3.1%; inhibition at 0.0457 µM ([1]; Homo sapiens, CAPAN-1, 0.0457 uM, replicate 1, read-out: Inh % 1): -6.9%; inhibition at 0.0457 µM ([1]; Homo sapiens, CAPAN-1, 0.0457 uM, replicate 2, read-out: Inh % 2): -3.4%; inhibition at […] ([1]; Homo sapiens, replicate 1, read-out: Inh % 1): 10.3%; inhibition at […] ([1]; Homo sapiens, replicate 2, read-out: Inh % 2): -1.9%; inhibition at 0.41 µM ([1]; Homo sapiens, CAPAN-1, 0.41 uM, replicate 1, read-out: Inh % 1): 9.4%; inhibition at 0.41 µM ([1]; Homo sapiens, CAPAN-1, 0.41 uM, replicate 2, read-out: Inh % 2): 0.649%; inhibition at 1.23 µM ([1]; Homo sapiens, CAPAN-1, 1.23 uM, replicate 1, read-out: Inh % 1): 5.9%; inhibition at 1.23 µM ([1]; Homo sapiens, CAPAN-1, 1.23 uM, replicate 2, read-out: Inh % 2): 8.1%; inhibition at 3.7 µM ([1]; Homo sapiens, CAPAN-1, 3.70 uM, replicate 1, read-out: Inh % 1): 13.8%; inhibition at 3.7 µM ([1]; Homo sapiens, CAPAN-1, 3.70 uM, replicate 2, read-out: Inh % 2): 3.5%; inhibition at 11.11 µM ([1]; Homo sapiens, CAPAN-1, 11.11 uM, replicate 1, read-out: Inh % 1): 7.2%; inhibition at 11.11 µM ([1]; Homo sapiens, CAPAN-1, 11.11 uM, replicate 2, read-out: Inh % 2): -0.268%; inhibition at 33.33 µM ([1]; Homo sapiens, CAPAN-1, 33.33 uM, replicate 1, read-out: Inh % 1): 15.8%; inhibition at 33.33 µM ([1]; Homo sapiens, CAPAN-1, 33.33 uM, replicate 2, read-out: Inh % 2): -1.9%; inhibition at 100 µM ([1]; Homo sapiens, CAPAN-1, 100.00 uM, replicate 1, read-out: Inh % 1): 29.7%; inhibition at 100 µM ([1]; Homo sapiens, CAPAN-1, 100.00 uM, replicate 2, read-out: Inh % 2): 21.1%; inhibition at 0.00508 µM ([2]; MDA-MB-436, MDA-MB-436, Conc. 0.00508 uM, replicate 1, read-out: Inh % 1): -0.144%; inhibition at 0.00508 µM ([2]; MDA-MB-436, MDA-MB-436, Conc. 0.00508 uM, replicate 2, read-out: Inh % 2): -3.2%; inhibition at 0.0152 µM ([2]; MDA-MB-436, MDA-MB-436, Conc. 0.0152 uM, replicate 1, read-out: Inh % 1): -5.7%; inhibition at 0.0152 µM ([2]; MDA-MB-436, MDA-MB-436, Conc. 0.0152 uM, replicate 2, read-out: Inh % 2): -4.4%; inhibition at 0.0457 µM ([2]; MDA-MB-436, MDA-MB-436, Conc. 0.0457 uM, replicate 1, read-out: Inh % 1): -8.5%; inhibition at 0.0457 µM ([2]; MDA-MB-436, MDA-MB-436, Conc. 0.0457 uM, replicate 2, read-out: Inh % 2): -9.4%; inhibition at 0.41 µM ([2]; MDA-MB-436, MDA-MB-436, Conc. 0.41 uM, replicate 1, read-out: Inh % 1): -14.6%; inhibition at 0.41 µM ([2]; MDA-MB-436, MDA-MB-436, Conc. 0.41 uM, replicate 2, read-out: Inh % 2): -10.9%; inhibition at 1.23 µM ([2]; MDA-MB-436, MDA-MB-436, Conc. 1.23 uM, replicate 1, read-out: Inh % 1): -9.9%; inhibition at 1.23 µM ([2]; MDA-MB-436, MDA-MB-436, Conc. 1.23 uM, replicate 2, read-out: Inh % 2): -7%; inhibition at 3.7 µM ([2]; MDA-MB-436, MDA-MB-436, Conc. 3.70 uM, replicate 1, read-out: Inh % 1): 1.6%; inhibition at 3.7 µM ([2]; MDA-MB-436, MDA-MB-436, Conc. 3.70 uM, replicate 2, read-out: Inh % 2): -6.5%; inhibition at 11.11 µM ([2]; MDA-MB-436, MDA-MB-436, Conc. 11.11 uM, replicate 1, read-out: Inh % 1): -3.4%; inhibition at 11.11 µM ([2]; MDA-MB-436, MDA-MB-436, Conc. 11.11 uM, replicate 2, read-out: Inh % 2): -9.3%; inhibition at 33.33 µM ([2]; MDA-MB-436, MDA-MB-436, Conc. 33.33 uM, replicate 1, read-out: Inh % 1): 17.3%; inhibition at 33.33 µM ([2]; MDA-MB-436, MDA-MB-436, Conc. 33.33 uM, replicate 2, read-out: Inh % 2): 8.3%; inhibition at 100 µM ([2]; MDA-MB-436, MDA-MB-436, Conc. 100.00 uM, replicate 1, read-out: Inh % 1): 86.9%; inhibition at 100 µM ([2]; MDA-MB-436, MDA-MB-436, Conc. 100.00 uM, replicate 2, read-out: Inh % 2): 70.9%; pIC50 ([2]; MDA-MB-436, 72 h, CellTiter-Glo, read-out: MDA-MB-436 IC50): 4.21; pIC50 ([2]; MDA-MB-436, 72 h, supplement Summary sheet, read-out: IC50): 4.21; IC50 ([2]; MDA-MB-436, curve fit list, no unit in the cell, concentration in uM, read-out: IC50): 61 µM; LogIC50 ([2]; MDA-MB-436): 1.786; Top ([2]; MDA-MB-436): 104.3; inhibition at 0.01 µM (PARP-2; 10 nM compound, supplement sheet, read-out: 10 nM inhibition% PAPR-2): 8.96%; inhibition at 0.01 µM (PARP-2; 10 nM compound, read-out: PARP-2 Inhibition % (10 nM)): 9%

**Q.** Which results are given for `NC(=O)c1cccc2[nH]c(C3CCN(CCC(O)c4ccccc4)C3)nc12` (centres unmarked) [Compound 5cg, 2-(1-(3-Hydroxy-3-phenylpropyl)pyrrolidin-3-yl)-1H-benzo[d]imi-dazole-4-carboxamide]?
**A.** inhibition at 0.01 µM (PARP-1; read-out: 10 nM inhibition% PAPR-1): -2.11%; inhibition at 0.01 µM (PARP-1; read-out: PARP-1 Inhibition % (10 nM)): -2.1%; LogIC50 ([1]; CAPAN-1, curve-fit output, Log (uM)): 2.199; IC50 ([1]; Homo sapiens, CAPAN-1, 72 h, read-out: CAPAN-1 IC50 (μM)): > 100 µM; inhibition at 0.00508 µM [1, 3]: 4.5%; inhibition at 0.0152 µM [1, 3]: 16.3%; inhibition at 0.0457 µM [1, 3]: 5.6%; inhibition at 0.41 µM [1, 3]: 14.3%; inhibition at 1.23 µM [1, 3]: 11.4%; inhibition at 3.7 µM [1, 3]: 16.5%; inhibition at 11.11 µM [1, 3]: 22%; inhibition at 33.33 µM [1, 3]: 33.5%; inhibition at 100 µM [1, 3]: 47.6%; inhibition at 0.00508 µM [1, 4]: -5.2%; inhibition at 0.0152 µM [1, 4]: -0.0618%; inhibition at 0.0457 µM [1, 4]: 0.1%; inhibition at 0.41 µM [1, 4]: 8.8%; inhibition at 1.23 µM [1, 4]: 2.5%; inhibition at 3.7 µM [1, 4]: 5.4%; inhibition at 11.11 µM [1, 4]: -1.6%; inhibition at 33.33 µM [1, 4]: 14%; inhibition at 100 µM [1, 4]: 38.6%; pIC50 ([2]; MDA-MB-436): 4.13; pIC50 ([2]; MDA-MB-436, 72 h): 4.13; IC50 ([2]; MDA-MB-436, 72 h, read-out: MDA-MB-436 IC50 (μM)): 74.1 µM; inhibition at 0.00508 µM ([2]; MDA-MB-436, read-out: Inh % 1): 2.1%; inhibition at 0.0152 µM ([2]; MDA-MB-436, read-out: Inh % 1): -3.5%; inhibition at 0.0457 µM ([2]; MDA-MB-436, read-out: Inh % 1): -5.7%; inhibition at 0.41 µM ([2]; MDA-MB-436, read-out: Inh % 1): -16.8%; inhibition at 1.23 µM ([2]; MDA-MB-436, read-out: Inh % 1): -6%; inhibition at 3.7 µM ([2]; MDA-MB-436, read-out: Inh % 1): -10.1%; inhibition at 11.11 µM ([2]; MDA-MB-436, read-out: Inh % 1): 0.536%; inhibition at 33.33 µM ([2]; MDA-MB-436, read-out: Inh % 1): 21.6%; inhibition at 100 µM ([2]; MDA-MB-436, read-out: Inh % 1): 68%; inhibition at 0.00508 µM ([2]; MDA-MB-436, read-out: Inh % 2): -5%; inhibition at 0.0152 µM ([2]; MDA-MB-436, read-out: Inh % 2): -7%; inhibition at 0.0457 µM ([2]; MDA-MB-436, read-out: Inh % 2): -13.4%; inhibition at 0.41 µM ([2]; MDA-MB-436, read-out: Inh % 2): -9.8%; inhibition at 1.23 µM ([2]; MDA-MB-436, read-out: Inh % 2): -9.1%; inhibition at 3.7 µM ([2]; MDA-MB-436, read-out: Inh % 2): -17.7%; inhibition at 11.11 µM ([2]; MDA-MB-436, read-out: Inh % 2): -6.9%; inhibition at 33.33 µM ([2]; MDA-MB-436, read-out: Inh % 2): 10.8%; inhibition at 100 µM ([2]; MDA-MB-436, read-out: Inh % 2): 46.7%; LogIC50 ([2]; MDA-MB-436): 1.87; Top ([2]; MDA-MB-436): = 100.0; inhibition at 0.01 µM (PARP-2; read-out: 10 nM inhibition% PAPR-2): 6.45%; inhibition at 0.01 µM (PARP-2; read-out: PARP-2 Inhibition % (10 nM)): 6.5%
